According to patent US9586931B2 (Merck Sharp & Dohme Corp., priority 2012, dated 2017):

target: T1, recombinant human GST-Syk (Homo sapiens, UniProt P43405); assay: Homogeneous Time-Resolved Fluorescence (HTRF) assay for the recombinant human Syk enzyme; type: biochemical; conditions: recombinant human GST-Syk 5 pM, ATP 25 μM, 10-dose titration 10 μM to 0.508 nM; read-out: rhSYK Activity IC50
T1 construct: purchased Carna Biosciences 08-176
Outline: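 Detection used time-resolved fluorescence 30 min after adding a quench mix (40 mM EDTA, 15 mM Tris pH 7.5, 0.01% Tween 20) containing 2 nM Europium anti-pTyr antibody and 70 nM streptavidin-APC. This followed 45 min of room-temperature peptide phosphorylation by recombinant GST-tagged human Syk.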

IC50 [nM] | Compound
281 | Cc1cc(Nc2nccc(C(F)(F)F)n2)cc(-c2nc[nH]n2)c1 [Example 2.14, N-[3-methyl-5-(1H-1,2,4-triazol-3-yl)phenyl]-4-(trifluoromethyl)pyrimidin-2-amine]
92.8 | COC(=O)CNC(=O)[C@@H](C)n1cc(-c2cc(C)cc(Nc3cc(C(F)(F)F)ccn3)n2)nn1 [Example 1.57, methyl N-{(2R)-2-[4-(4-methyl-6-{[4-(trifluoromethyl)pyridin-2-yl]amino}pyridin-2-yl)-1H-1,2,3-triazol-1-yl]propanoyl}glycinate]
7.9 | Cc1cc(Nc2cc(C(F)(F)F)ccn2)nc(-c2cn(CC(O)CO)nn2)c1 (racemic) [Example 5.95, 3-[4-(4-methyl-6-{[4-(trifluoromethyl)pyridin-2-yl]amino}pyridin-2-yl)-1H-1,2,3-triazol-1-yl]propane-1,2-diol]
102 | Cc1cc(Nc2nccc(C(F)(F)F)n2)cc(-n2ccnn2)c1 [Example 15.11, N-[3-methyl-5-(1H-1,2,3-triazol-1-yl)phenyl]-4-(trifluoromethyl)pyrimidin-2-amine]
66.4 | COC(=O)[C@@H](C)Cn1cc(-c2cc(C)cc(Nc3cc(C(F)(F)F)ccn3)n2)nn1 [Example 5.86, methyl (2S)-2-methyl-3-[4-(4-methyl-6-{[4-(trifluoromethyl)pyridin-2-yl]amino}pyridin-2-yl)-1H-1,2,3-triazol-1-yl]propanoate]
1.8 | Cc1cc(Nc2cc(C(F)F)ccn2)nc(-c2cn(CC(C)(O)CO)nn2)c1 (stereo not shown) [Example 21.39, 3-(4-(6-((4-(difluoromethyl)pyridin-2-yl)amino)-4-methylpyridin-2-yl)-1H-1,2,3-triazol-1-yl)-2-methylpropane-1,2-diol]
7220 | Cc1cc(Nc2nccc(C(F)(F)F)n2)cc(-c2cn(C3CCC(C(=O)OC(C)(C)C)CC3)nn2)c1 (stereo not shown) [Example 9.4, tert-butyl 4-[4-(3-methyl-5-{[4-(trifluoromethyl)-pyrimidin-2-yl]amino}-phenyl)-1H-1,2,3-triazol-1-yl]cyclohexane-carboxylate]
12.6 | Cc1cc(Nc2cc(C(F)(F)F)ccn2)nc(-c2cn(Cc3nnn[nH]3)nn2)c1 [Example 5.109, 4-methyl-6-[1-(1H-tetrazol-5-ylmethyl)-1H-1,2,3-triazol-4-yl]-N-[4-(trifluoromethyl)pyridin-2-yl]pyridin-2-amine]
95 | Cc1cc(Nc2cc(C(F)(F)F)ccn2)nc(-c2cn([C@@H](C)C(=O)N3CCC[C@H]3C(=O)O)nn2)c1 [Example 3.13, 1-{(2S)-2-[4-(4-methyl-6-{[4-(trifluoromethyl)pyridin-2-yl]amino}pyridin-2-yl)-1H-1,2,3-triazol-1-yl]propanoyl}proline]
9 | Cc1cc(Nc2cc(C(F)F)ccn2)nc(-c2cn(CC(C)(O)CC#N)nn2)c1 (single isomer, unassigned) [Example 23.2, 4-(4-(6-((4-(difluoromethyl)pyridin-2-yl)amino)-4-methylpyridin-2-yl)-1H-1,2,3-triazol-1-yl)-3-hydroxy-3-methylbutanenitrile]
4.7 | Cc1cc(Nc2nccc(C(F)F)n2)cc(-c2cn(CC3(O)CNC(=O)C3)nn2)c1 (single isomer, unassigned) [Example 31.2, 4-((4-(3-((4-(Difluoromethyl)pyrimidin-2-yl)amino)-5-methylphenyl)-1H-1,2,3-triazol-1-yl)methyl)-4-hydroxypyrrolidin-2-one]
50.6 | COc1nc(Nc2cc(C)cc(-c3cn(CC(C)(O)C(C)(C)O)nn3)c2)ncc1Cl (stereo not shown) [Example 21.16, 1-(4-{3-[(5-chloro-4-methoxypyrimidin-2-yl)amino]-5-methylphenyl}-1H-1,2,3-triazol-1-yl)-2,3-dimethylbutane-2,3-diol]
21.1 | Cc1cc(Nc2cc(C(C)O)ccn2)nc(-c2cn(C(C)c3ccc(C(=O)O)cc3)nn2)c1 (stereo not shown) [Example 2.3, 4-{1-[4-(6-{[4-(1-hydroxyethyl)pyridin-2-yl]amino}-4-methylpyridin-2-yl)-1H-1,2,3-triazol-1-yl]ethyl}benzoic acid]
